Results on 20 compounds are retold here after patent US12110299B2, “Thiazole derivatives and pharmaceutically acceptable salts thereof” (YUNGJIN PHARM. CO., LTD., priority 2018, dated 2024).

The test system of test [1] is MDA-MB-468 cells. In words: Anti-proliferative effect on MDA-MB-468 cells, IC50 (MTT). It is filed as cell-based.
The next test deals with HepG2 cells. In words: HepG2 cell viability assay (CCK-8). The format is cell-based, human. As for the experimental part:
The ability to inhibit the proliferation of HepG2 cells, which are human hepatocellular carcinoma cells, was measured through the in vitro cell viability assay. Cells were cultured at 37° C. in a humidified condition in the presence of 5% CO2 using a culture medium of MEM (Welgene)+10% FBS (Gibco)+1% penicillin/streptomycin (Gibco). […] Cell viability was measured by CCK-8 method using tetrazolium salt, and the ability of the compounds according to the present invention to inhibit cancer cell proliferation was calculated.

Test [2] concerns MDA-MB-468 cells. In words: Anti-proliferative effect on MDA-MB-468 cells, inhibition rate at 100 nM (tetrazolium salt method). The format is cell-based. The following applies: Homo sapiens, 72 hours.
Procedure: Representative compounds of the present invention were tested at different concentrations (from 1000 nM to 25 nM) to assess their ability to inhibit the proliferation of MDA-MB-468 cells. Cells were grown in RPMI 1640 (Welgene)+10% FBS (Gibco)+1% penicillin/streptomycin (Gibco) and cultured at 37° C. in a humidified chamber in the presence of 5% CO2.
MDA-MB-468 cells cultured in 96-well cell culture plates were treated with representative compounds of the present invention and cultured for 72 hours.
Test [3] concerns the target recombinant purified human CDK7 kinase (Homo sapiens (Human), UniProt P50613). Description: CDK7 kinase-inhibitory activity, ADP-Glo kinase assay. The following applies: ATP 90 µM, MBP substrate, 2 hours at 30° C., read-out: CDK7 inhibition(IC50 nM). It is filed as biochemical. As to the method: Representative compounds of the present invention were assayed in vitro for CDK7 kinase-inhibitory activities using ADP-Glo platform. In detail, CDK7 kinase-inhibitory activity was measured using recombinant purified human CDK7 kinase (ThermoFisher, PV3868) and ADP Glo kinase assays kit (Promega, V9102). CDK7 kinase was diluted with 1× kinase reaction buffer (40 mM Tris-C1, pH 7.5, 20 mM MgCl2, 0.1 mg/ml BSA and 50 [M DTT) and added to 96 well plates (final concentration of CDK7 per reaction: 50 ng). The compound was finally treated to be a 1% DMSO aqueous solution, and a substrate cocktail containing ATP (final concentration of 90 [M) and 0.2 μg/μl of MBP (Myelin basic protein) in a total of 25 μl of reaction mass was added to 96 well plates, thereby initiating an enzymatic reaction. After 2 hours of incubation (30° C.), equivalent volume (25 μl per reaction) of ADP Glo was added and incubated (30° C.) at room temperature for 60 minutes. The kinase detection reagent (50 μl per reaction) was then added and incubated (30° C.) at room temperature for 30 minutes. The kinase activity was measured by chemiluminescence method according to ADP Glo Kanease Assay Kit instruction manual, and the CDK7-inhibitory activity of the compounds according to the present invention was calculated. The result analysis of each compound was performed using Microsoft Excel, and IC50 values were calculated by Prism software.
(In general: ADP-Glo first removes unused ATP, then detects ADP through luciferase.)

The term IC50 denotes the point on the concentration scale where inhibition reaches its midpoint. What is called inhibition is the relative decrease from the control value, in per cent.

Chain of recombinant purified human CDK7 kinase (P50613 whole entry): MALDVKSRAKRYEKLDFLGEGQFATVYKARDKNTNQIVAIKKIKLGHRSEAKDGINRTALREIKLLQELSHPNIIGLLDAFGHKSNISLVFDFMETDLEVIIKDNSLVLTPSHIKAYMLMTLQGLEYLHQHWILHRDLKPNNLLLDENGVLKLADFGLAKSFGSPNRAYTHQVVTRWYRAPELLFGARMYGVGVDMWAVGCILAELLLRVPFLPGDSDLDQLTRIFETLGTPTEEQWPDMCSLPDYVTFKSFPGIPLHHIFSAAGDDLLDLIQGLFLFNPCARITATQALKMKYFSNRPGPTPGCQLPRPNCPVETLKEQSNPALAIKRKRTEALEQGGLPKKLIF
Chain of recombinant purified human CDK7 kinase (P51946 whole entry partner): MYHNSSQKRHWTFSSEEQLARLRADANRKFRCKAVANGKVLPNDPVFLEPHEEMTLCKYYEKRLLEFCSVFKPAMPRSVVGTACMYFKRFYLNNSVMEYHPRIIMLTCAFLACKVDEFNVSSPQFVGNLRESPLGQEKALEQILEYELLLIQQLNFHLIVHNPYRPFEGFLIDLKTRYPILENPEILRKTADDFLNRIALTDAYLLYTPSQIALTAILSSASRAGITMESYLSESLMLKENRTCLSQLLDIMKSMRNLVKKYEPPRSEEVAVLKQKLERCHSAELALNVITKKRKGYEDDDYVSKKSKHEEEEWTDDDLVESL
Chain of recombinant purified human CDK7 kinase (P51948 whole entry partner): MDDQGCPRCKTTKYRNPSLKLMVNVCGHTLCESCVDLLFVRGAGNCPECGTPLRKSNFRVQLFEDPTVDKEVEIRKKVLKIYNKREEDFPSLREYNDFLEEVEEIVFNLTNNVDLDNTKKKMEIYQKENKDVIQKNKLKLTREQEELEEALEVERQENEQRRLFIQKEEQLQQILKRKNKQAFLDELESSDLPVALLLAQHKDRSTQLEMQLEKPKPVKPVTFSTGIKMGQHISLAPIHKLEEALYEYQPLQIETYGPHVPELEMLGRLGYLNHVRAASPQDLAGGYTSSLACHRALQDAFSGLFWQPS

For `C=CC(=O)Nc1ccc(-c2cccc(C(C)C(=O)Nc3ncc(C4CC4)s3)c2)cn1` (centres unmarked) [Example 2, N-(5-(3-(1-((5-cyclopropylthiazol-2-yl)amino)-1-oxopropan-2-yl)phenyl)pyridin-2-yl)acrylamide], the IC50 stood at 104 nM in the test on MDA-MB-468 cells [1] (Homo sapiens, MDA-MB-468, 72 h) and 15 nM with HepG2 cells (Homo sapiens, HepG2, 72 h). Also, the inhibition at 0.1 µM in the test on MDA-MB-468 cells [2] was 50%.

With `CC(C(=O)Nc1ncc(C2CC2)s1)c1cccc(-c2ccc(NC(=O)/C=C/CN(C)C)nc2)c1` (centres unmarked) [Example 6, (E)-N-(5-(3-(1-((5-cyclopropylthiazol-2-yl)amino)-1-oxopropan-2-yl)phenyl)pyridin-2-yl)-4-(dimethylamino)but-2-enamide], the IC50 in the test with MDA-MB-468 cells [1] (Homo sapiens, MDA-MB-468, 72 h) stood at 86 nM; in the test on HepG2 cells (Homo sapiens, HepG2, 72 h), 22 nM. For the same compound, in the test with MDA-MB-468 cells [2], the inhibition at 0.1 µM is 66%.

`C=CC(=O)Nc1ccc(-c2cccc([C@H](C)C(=O)Nc3ncc(C4CC4)s3)c2)cn1` [Example 14]: the IC50 in the test with MDA-MB-468 cells [1] (Homo sapiens, MDA-MB-468, 72 h) was determined as 63 nM; in the test on HepG2 cells (Homo sapiens, HepG2, 72 h), 5 nM. In addition, the inhibition at 0.1 µM in the test with MDA-MB-468 cells [2] was 74%.

For the compound `C[C@H](C(=O)Nc1ncc(C2CC2)s1)c1cccc(-c2ccc(NC(=O)/C=C/CN(C)C)nc2)c1` [Example 15], the IC50 in the test on MDA-MB-468 cells [1] (Homo sapiens, MDA-MB-468, 72 h) turned out to be 46 nM. The inhibition at 0.1 µM with MDA-MB-468 cells [2] worked out at 73%.

`CCc1cnc(NC(=O)[C@@H](C)c2cccc(-c3ccc(NC(=O)/C=C/CN(C)C)nc3)c2)s1` [Example 17, (S,E)-4-(dimethylamino)-N-(5-(3-(1-((5-ethylthiazol-2-yl)amino)-1-oxopropan-2-yl)phenyl)pyridin-2-yl)but-2-enamide] yielded an IC50 with MDA-MB-468 cells [1] (Homo sapiens, MDA-MB-468, 72 h) of 26 nM. The inhibition at 0.1 µM in the test with MDA-MB-468 cells [2] is 70%.

In the case of `C=CC(=O)Nc1cnc(-c2cccc([C@H](C)C(=O)Nc3ncc(C(F)(F)F)s3)c2)cn1` [Example 37, (S)-N-(5-(3-(1-oxo-1-((5-(trifluoromethyl)thiazol-2-yl)amino)propan-2-yl)phenyl)pyrazin-2-yl)acrylamide], the IC50 in the test on MDA-MB-468 cells [1] (Homo sapiens, MDA-MB-468, 72 h) was determined as 40 nM; with HepG2 cells (Homo sapiens, HepG2, 72 h), 8 nM; in test [3], 17 nM. Also, the inhibition at 0.1 µM with MDA-MB-468 cells [2] turned out to be 60%.

On to `C=CC(=O)Nc1cnc(-c2cncc(C(C)C(=O)Nc3ncc(C(F)(F)F)s3)c2)cn1` (centres unmarked) [Example 45, N-(5-(5-(1-oxo-1-((5-(trifluoromethyl)thiazol-2-yl)amino)propan-2-yl)pyridin-3-yl)pyrazin-2-yl)acrylamide], for which the IC50 in the test on MDA-MB-468 cells [1] (Homo sapiens, MDA-MB-468, 72 h) stood at 10 nM; in the test on HepG2 cells (Homo sapiens, HepG2, 72 h) it was 8 nM; in test [3] it was 22 nM. In addition, in the test on MDA-MB-468 cells [2], the inhibition at 0.1 µM amounted to 59%.

Regarding `C=CC(=O)Nc1cnc(-c2cncc([C@H](C)C(=O)Nc3ncc(C(F)(F)F)s3)c2)cn1` [Example 52, (S)-N-(5-(5-(1-oxo-1-((5-(trifluoromethyl)thiazol-2-yl)amino)propan-2-yl)pyridin-3-yl)pyrazin-2-yl)acrylamide], the inhibition at 0.1 µM in the test on MDA-MB-468 cells [2] turned out to be 72%. In addition, the IC50 in test [3] came out at 19 nM.

For `C=CC(=O)Nc1ccc(-c2csc(C(C)C(=O)Nc3ncc(C(F)(F)F)s3)c2)cn1` (centres unmarked) [Example 53, N-(5-(5-(1-oxo-1-((5-(trifluoromethyl)thiazol-2-yl)amino)propan-2-yl)thiophen-3-yl)pyridin-2-yl)acrylamide], the inhibition at 0.1 µM in the test on MDA-MB-468 cells [2] stood at 51%.

`C=CC(=O)Nc1cnc(-c2cncc(C(C)C(=O)Nc3ncc(Cl)s3)c2)cn1` (centres unmarked) [Example 61, N-(5-(5-(1-((5-chlorothiazol-2-yl)amino)-1-oxopropan-2-yl)pyridin-3-yl)pyrazine-2-yl)acrylamide]: the inhibition at 0.1 µM in the test with MDA-MB-468 cells [2] was determined as 73%.

In the case of `CC(C(=O)Nc1ncc(C(F)(F)F)s1)c1cncc(-c2cnc(NC(=O)/C=C/CN(C)C)cn2)c1` (centres unmarked) [Example 63, (E)-4-(dimethylamino)-N-(5-(5-(1-oxo-1-((5-(trifluoromethyl)thiazol-2-yl)amino)propan-2-yl)pyridin-3-yl)pyrazin-2-yl)but-2-enamide], the half-inhibitory concentration (IC50) is 20 nM with MDA-MB-468 cells [1] (Homo sapiens, MDA-MB-468, 72 h); 2 nM with HepG2 cells (Homo sapiens, HepG2, 72 h); 17 nM in test [3].

On to `CC(C(=O)Nc1ncc(Cl)s1)c1cncc(-c2cnc(NC(=O)/C=C/CN(C)C)cn2)c1` (centres unmarked) [Example 73, (E)-N-(5-(5-(1-((5-chlorothiazol-2-yl)amino)-1-oxopropan-2-yl)pyridin-3-yl)pyrazin-2-yl)-4-(dimethylamino)but-2-enamide], for which the 50% inhibitory concentration (IC50) is 35 nM in the test on MDA-MB-468 cells [1] (Homo sapiens, MDA-MB-468, 72 h) and 43 nM in test [3].

With `C[C@H](C(=O)Nc1ncc(C(F)(F)F)s1)c1cccc(-c2cnc(NC(=O)/C=C/CN(C)C)cn2)c1` [Example 91, (S,E)-4-(dimethylamino)-N-(5-(3-(1-oxo-1-((5-(trifluoromethyl)thiazol-2-yl)amino)propan-2-yl)phenyl)pyrazin-2-yl)but-2-enamide], the figures for the IC50 (in the test with MDA-MB-468 cells [1] (72 hours); in the test with HepG2 cells (72 hours); in test [3]) were 38 nM, 9.5 nM and 8 nM, respectively.

Consider `C[C@H](C(=O)Nc1ncc(C(F)(F)F)s1)c1cccc(-c2cnc(NC(=O)/C=C/CN3CCN(C)CC3)cn2)c1` [Example 95, (S,E)-4-(4-methylpiperazin-1-yl)-N-(5-(3-(1-oxo-1-((5-(trifluoromethyl)thiazol-2-yl)amino)propan-2-yl)phenyl)pyrazin-2-yl)but-2-enamide], for which the IC50 in the test with MDA-MB-468 cells [1] (Homo sapiens, MDA-MB-468, 72 h) was 57 nM; in test [3], 80 nM.

Take `C[C@H](C(=O)Nc1ncc(N(C)C)s1)c1cccc(-c2cnc(NC(=O)/C=C/CN(C)C)cn2)c1` [Example 106, (S,E)-4-(dimethylamino)-N-(5-(3-(1-((5-(dimethylamino)thiazol-2-yl)amino)-1-oxopropan-2-yl)phenyl)pyrazin-2-yl)but-2-enamide]: in test [3], the IC50 came to 71 nM.

For `C[C@H](C(=O)Nc1ncc(C(F)(F)F)s1)c1cccc(-c2ccc(NC(=O)/C=C/CN(C)C)nc2)c1` [Example 116, (S,E)-4-(dimethylamino)-N-(5-(3-(1-oxo-1-((5-(trifluoromethyl)thiazol-2-yl)amino)propan-2-yl)phenyl)pyridin-2-yl)but-2-enamide], the IC50 in the test with MDA-MB-468 cells [1] (Homo sapiens, MDA-MB-468, 72 h) came to 65 nM; in test [3], 13 nM.

For `C[C@H](C(=O)Nc1ncc(C(F)(F)F)s1)c1cccc(-c2cnc(NC(=O)/C=C/CN3CC[C@H](F)C3)cn2)c1` [Example 117, (E)-4-((S)-3-fluoropyrrolidin-1-yl)-N-(5-(3-((S)-1-oxo-1-((5-(trifluoromethyl)thiazol-2-yl)amino)propan-2-yl)phenyl)pyrazin-2-yl)but-2-enamide], the IC50 came to 56 nM with MDA-MB-468 cells [1] (Homo sapiens, MDA-MB-468, 72 h) and 15 nM in test [3].

For `C[C@H](C(=O)Nc1ncc(C(F)(F)F)s1)c1cccc(-c2cnc(NC(=O)/C=C/CN3CCC(O)C3)cn2)c1` (stereo partly drawn) [Example 119, (E)-4-(3-hydroxypyrrolidin-1-yl)-N-(5-(3-((S)-1-oxo-1-((5-(trifluoromethyl)thiazol-2-yl)amino)propan-2-yl)phenyl)pyrazin-2-yl)but-2-enamide], the IC50 in the test on MDA-MB-468 cells [1] (Homo sapiens, MDA-MB-468, 72 h) was 44 nM; in test [3], 9 nM.

Turning to `CCc1cnc(NC(=O)[C@@H](C)c2cccc(-c3cnc(NC(=O)/C=C/CN(C)C)c(C)c3)c2)s1` [Example 125], the IC50 in the test on MDA-MB-468 cells [1] (Homo sapiens, MDA-MB-468, 72 h) was 33 nM; in test [3], 13 nM.

For the compound `CCc1cnc(NC(=O)[C@@H](C)c2cccc(-c3cnc(NC(=O)/C=C/CN(C)C)c(F)c3)c2)s1` [Example 130, (S,E)-4-(dimethylamino)-N-(5-(3-(1-((5-ethylthiazol-2-yl)amino)-1-oxopropan-2-yl)phenyl)-3-fluoropyridin-2-yl)but-2-enamide], the IC50 in the test on MDA-MB-468 cells [1] (Homo sapiens, MDA-MB-468, 72 h) is 18 nM; with HepG2 cells (Homo sapiens, HepG2, 72 h) it was 3.8 nM; in test [3], 8 nM.
